Measurements as given in the supplement of paper PMC10307832.

Legend:
Test in all cases: relative viability (nuclei count vs DMSO), 5 days (fraction); higher = more cells survive
A-427 = tested on: A-427
Method in brief: (§1)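 The day after seeding in 1536-well plates, lung cancer cell lines were treated by pin tool with a single drug, or with a fixed anchor-drug dose together with five library-drug doses (not always all listed) in √10 steps. After 5 days, a combined fix-and-stain solution (final 0.05% Triton X-100, 1% formaldehyde, 1 ug/ml Hoechst) was added. Nuclei counted on 4× images gave relative viability as treated counts over vehicle counts, reported as the median of duplicate plates.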

ABC-1 = tested on: ABC-1
Method in brief: as §1

COR-L23 = tested on: COR-L23
Method in brief: as §1

EMC-BAC-2 = tested on: EMC-BAC-2
Method in brief: as §1

HARA = tested on: HARA
Method in brief: as §1

HOP-62 = tested on: HOP-62
Method in brief: as §1

LK-2 = tested on: LK-2
Method in brief: as §1

LU99A = tested on: LU99A
Method in brief: as §1

LXF-289 = tested on: LXF-289
Method in brief: as §1

NCI-H1792 = tested on: NCI-H1792
Method in brief: as §1

NCI-H1793 = tested on: NCI-H1793
Method in brief: as §1

NCI-H1944 = tested on: NCI-H1944
Method in brief: as §1

NCI-H1993 = tested on: NCI-H1993
Method in brief: as §1

NCI-H2009 = tested on: NCI-H2009
Method in brief: as §1

NCI-H2228 = tested on: NCI-H2228
Method in brief: as §1

NCI-H3122 = tested on: NCI-H3122
Method in brief: as §1

NCI-H596 = tested on: NCI-H596
Method in brief: as §1

NCI-H727 = tested on: NCI-H727
Method in brief: as §1

PC-3 [JPC-3] = tested on: PC-3 [JPC-3]
Method in brief: as §1

SK-LU-1 = tested on: SK-LU-1
Method in brief: as §1

SK-MES-1 = tested on: SK-MES-1
Method in brief: as §1

SW 1573 = tested on: SW 1573
Method in brief: as §1

## C[C@@H]1CN(CC(=O)Nc2ccc3c(c2)Cc2cccc(-c4cc(=O)cc(N5CCOCC5)o4)c2S3)C[C@H](C)O1 + C[C@]1(O)C[C@@H](c2nc(-c3ccc4ccc(-c5ccccc5)nc4c3)c3c(N)nccn32)C1 [Linsitinib] (partner 1 µM)
A-427; first compound 0.04 µM
  relative viability: 1.23
A-427; first compound 0.1265 µM
  relative viability: 1.14
A-427; first compound 0.4 µM
  relative viability: 1.12
A-427; first compound 4 µM
  relative viability: 1.11
ABC-1; first compound 0.1265 µM
  relative viability: 0.781
ABC-1; first compound 0.4 µM
  relative viability: 0.769
ABC-1; first compound 4 µM
  relative viability: 0.673
COR-L23; first compound 0.04 µM
  relative viability: 0.97
COR-L23; first compound 0.1265 µM
  relative viability: 0.878
COR-L23; first compound 0.4 µM
  relative viability: 0.936
COR-L23; first compound 4 µM
  relative viability: 0.796
EMC-BAC-2; first compound 0.04 µM
  relative viability: 0.805
EMC-BAC-2; first compound 0.1265 µM
  relative viability: 0.765
EMC-BAC-2; first compound 0.4 µM
  relative viability: 0.757
EMC-BAC-2; first compound 4 µM
  relative viability: 0.77
HARA; first compound 0.04 µM
  relative viability: 0.997
HARA; first compound 0.1265 µM
  relative viability: 0.876
HARA; first compound 0.4 µM
  relative viability: 0.893
HARA; first compound 4 µM
  relative viability: 0.906
HOP-62; first compound 0.04 µM
  relative viability: 0.93
HOP-62; first compound 0.1265 µM
  relative viability: 0.945
HOP-62; first compound 0.4 µM
  relative viability: 0.897
HOP-62; first compound 4 µM
  relative viability: 0.947
LK-2; first compound 0.04 µM
  relative viability: 0.255
LK-2; first compound 0.1265 µM
  relative viability: 0.394
LK-2; first compound 0.4 µM
  relative viability: 0.666
LK-2; first compound 4 µM
  relative viability: 0.824
LU99A; first compound 0.04 µM
  relative viability: 0.489
LU99A; first compound 0.1265 µM
  relative viability: 0.46
LU99A; first compound 0.4 µM
  relative viability: 0.572
LU99A; first compound 4 µM
  relative viability: 0.596
LXF-289; first compound 0.04 µM
  relative viability: 0.981
LXF-289; first compound 0.1265 µM
  relative viability: 0.983
LXF-289; first compound 0.4 µM
  relative viability: 1.02
LXF-289; first compound 4 µM
  relative viability: 0.933
NCI-H1792; first compound 0.04 µM
  relative viability: 0.503
NCI-H1792; first compound 0.1265 µM
  relative viability: 0.519
NCI-H1792; first compound 0.4 µM
  relative viability: 0.564
NCI-H1792; first compound 4 µM
  relative viability: 0.425
NCI-H1793; first compound 0.04 µM
  relative viability: 1.02
NCI-H1793; first compound 0.1265 µM
  relative viability: 0.695
NCI-H1793; first compound 0.4 µM
  relative viability: 0.779
NCI-H1793; first compound 4 µM
  relative viability: 0.445
NCI-H1944; first compound 0.1265 µM
  relative viability: 1.24
NCI-H1944; first compound 0.4 µM
  relative viability: 1.36
NCI-H1944; first compound 4 µM
  relative viability: 1.22
NCI-H1993; first compound 0.04 µM
  relative viability: 0.716
NCI-H1993; first compound 0.1265 µM
  relative viability: 0.733
NCI-H1993; first compound 0.4 µM
  relative viability: 0.848
NCI-H1993; first compound 4 µM
  relative viability: 0.805
NCI-H2009; first compound 0.04 µM
  relative viability: 1.24
NCI-H2009; first compound 0.1265 µM
  relative viability: 1.13
NCI-H2009; first compound 0.4 µM
  relative viability: 1.1
NCI-H2009; first compound 4 µM
  relative viability: 0.961
NCI-H2228; first compound 0.04 µM
  relative viability: 0.685
NCI-H2228; first compound 0.1265 µM
  relative viability: 0.731
NCI-H2228; first compound 0.4 µM
  relative viability: 0.34
NCI-H2228; first compound 4 µM
  relative viability: 0.334
NCI-H3122; first compound 0.04 µM
  relative viability: 1.07
NCI-H3122; first compound 0.1265 µM
  relative viability: 0.933
NCI-H3122; first compound 0.4 µM
  relative viability: 1.02
NCI-H3122; first compound 4 µM
  relative viability: 0.99
NCI-H596; first compound 0.04 µM
  relative viability: 1.12
NCI-H596; first compound 0.1265 µM
  relative viability: 1.15
NCI-H596; first compound 0.4 µM
  relative viability: 0.922
NCI-H596; first compound 4 µM
  relative viability: 1
NCI-H727; first compound 0.04 µM
  relative viability: 0.38
NCI-H727; first compound 0.1265 µM
  relative viability: 0.348
NCI-H727; first compound 0.4 µM
  relative viability: 0.332
NCI-H727; first compound 4 µM
  relative viability: 0.3
PC-3 [JPC-3]; first compound 0.04 µM
  relative viability: 1.06
PC-3 [JPC-3]; first compound 0.1265 µM
  relative viability: 0.993
PC-3 [JPC-3]; first compound 0.4 µM
  relative viability: 0.952
PC-3 [JPC-3]; first compound 4 µM
  relative viability: 0.868
SK-LU-1; first compound 0.04 µM
  relative viability: 1.18
SK-LU-1; first compound 0.1265 µM
  relative viability: 1.19
SK-LU-1; first compound 0.4 µM
  relative viability: 1.27
SK-LU-1; first compound 4 µM
  relative viability: 0.835
SK-MES-1; first compound 0.04 µM
  relative viability: 1.13
SK-MES-1; first compound 0.1265 µM
  relative viability: 1.06
SK-MES-1; first compound 0.4 µM
  relative viability: 1.02
SK-MES-1; first compound 4 µM
  relative viability: 0.836
SW 1573; first compound 0.04 µM
  relative viability: 0.814
SW 1573; first compound 0.1265 µM
  relative viability: 0.914
SW 1573; first compound 0.4 µM
  relative viability: 0.646
SW 1573; first compound 4 µM
  relative viability: 0.771

## CC(C)Oc1cc(Nc2nc(N[C@@H](C)c3ccc(F)cn3)ncc2Cl)n[nH]1 [AZ23] + C[C@]1(O)C[C@@H](c2nc(-c3ccc4ccc(-c5ccccc5)nc4c3)c3c(N)nccn32)C1 [Linsitinib] (partner 1 µM)
A-427; first compound 0.01 µM
  relative viability: 1.24
A-427; first compound 0.03162 µM
  relative viability: 1.11
A-427; first compound 0.3162 µM
  relative viability: 1.16
ABC-1; first compound 0.01 µM
  relative viability: 0.573
ABC-1; first compound 0.03162 µM
  relative viability: 0.916
ABC-1; first compound 0.3162 µM
  relative viability: 0.866
COR-L23; first compound 0.01 µM
  relative viability: 0.948
COR-L23; first compound 0.03162 µM
  relative viability: 1.11
COR-L23; first compound 0.3162 µM
  relative viability: 0.878
EMC-BAC-2; first compound 0.01 µM
  relative viability: 1.09
EMC-BAC-2; first compound 0.03162 µM
  relative viability: 0.814
EMC-BAC-2; first compound 0.3162 µM
  relative viability: 0.884
HARA; first compound 0.01 µM
  relative viability: 0.977
HARA; first compound 0.03162 µM
  relative viability: 1.04
HARA; first compound 0.3162 µM
  relative viability: 0.854
HOP-62; first compound 0.01 µM
  relative viability: 1.09
HOP-62; first compound 0.03162 µM
  relative viability: 0.992
HOP-62; first compound 0.3162 µM
  relative viability: 0.95
LK-2; first compound 0.01 µM
  relative viability: 0.325
LK-2; first compound 0.03162 µM
  relative viability: 0.538
LK-2; first compound 0.3162 µM
  relative viability: 0.5
LU99A; first compound 0.01 µM
  relative viability: 0.534
LU99A; first compound 0.03162 µM
  relative viability: 0.579
LU99A; first compound 0.3162 µM
  relative viability: 0.593
LXF-289; first compound 0.01 µM
  relative viability: 1.13
LXF-289; first compound 0.03162 µM
  relative viability: 1.1
LXF-289; first compound 0.3162 µM
  relative viability: 0.941
NCI-H1792; first compound 0.01 µM
  relative viability: 0.565
NCI-H1792; first compound 0.03162 µM
  relative viability: 0.597
NCI-H1792; first compound 0.3162 µM
  relative viability: 0.61
NCI-H1793; first compound 0.01 µM
  relative viability: 1.04
NCI-H1793; first compound 0.03162 µM
  relative viability: 0.983
NCI-H1793; first compound 0.3162 µM
  relative viability: 0.952
NCI-H1944; first compound 0.01 µM
  relative viability: 1.12
NCI-H1944; first compound 0.03162 µM
  relative viability: 1.18
NCI-H1944; first compound 0.3162 µM
  relative viability: 1.26
NCI-H1993; first compound 0.01 µM
  relative viability: 0.801
NCI-H1993; first compound 0.3162 µM
  relative viability: 0.724
NCI-H2009; first compound 0.01 µM
  relative viability: 1.17
NCI-H2009; first compound 0.03162 µM
  relative viability: 1.25
NCI-H2009; first compound 0.3162 µM
  relative viability: 1.18
NCI-H2228; first compound 0.01 µM
  relative viability: 0.828
NCI-H2228; first compound 0.03162 µM
  relative viability: 0.727
NCI-H2228; first compound 0.3162 µM
  relative viability: 0.473
NCI-H3122; first compound 0.01 µM
  relative viability: 1.01
NCI-H3122; first compound 0.03162 µM
  relative viability: 1.01
NCI-H3122; first compound 0.3162 µM
  relative viability: 1.06
NCI-H596; first compound 0.01 µM
  relative viability: 1.09
NCI-H596; first compound 0.03162 µM
  relative viability: 1.18
NCI-H596; first compound 0.3162 µM
  relative viability: 1
NCI-H727; first compound 0.01 µM
  relative viability: 0.354
NCI-H727; first compound 0.03162 µM
  relative viability: 0.281
NCI-H727; first compound 0.3162 µM
  relative viability: 0.277
PC-3 [JPC-3]; first compound 0.01 µM
  relative viability: 1.03
PC-3 [JPC-3]; first compound 0.03162 µM
  relative viability: 1.04
PC-3 [JPC-3]; first compound 0.3162 µM
  relative viability: 0.973
SK-LU-1; first compound 0.01 µM
  relative viability: 0.893
SK-LU-1; first compound 0.03162 µM
  relative viability: 1.16
SK-LU-1; first compound 0.3162 µM
  relative viability: 0.932
SK-MES-1; first compound 0.01 µM
  relative viability: 1.09
SK-MES-1; first compound 0.03162 µM
  relative viability: 1.16
SK-MES-1; first compound 0.3162 µM
  relative viability: 1.12
SW 1573; first compound 0.01 µM
  relative viability: 0.786
SW 1573; first compound 0.03162 µM
  relative viability: 0.937
SW 1573; first compound 0.3162 µM
  relative viability: 0.691
